# From ChEMBL document CHEMBL1126330, “Synthesis of RP-67,580, a new potent nonpeptide substance P antagonist” (Bioorg Med Chem Lett, 1992)
# What was measured:
# Substance-P receptor [1] = biological target: Substance-P receptor (Cavia porcellus, UniProt P30547); assay: Tested for inhibition of contractile effects of Tachykinin receptor 1 in guinea pig ileum preparation.; type: functional, tissue-based; conditions: read-out: pA2 (converted)
# Substance-P receptor [2] = biological target: Substance-P receptor (Rattus norvegicus, UniProt P14600); assay: Tested for binding affinity towards Tachykinin receptor 1 by using [3H]SP binding assay in rat brain membranes; type: cell membranes
# Chain of Substance-P receptor (Rattus norvegicus, UniProt P14600) (P14600 whole entry): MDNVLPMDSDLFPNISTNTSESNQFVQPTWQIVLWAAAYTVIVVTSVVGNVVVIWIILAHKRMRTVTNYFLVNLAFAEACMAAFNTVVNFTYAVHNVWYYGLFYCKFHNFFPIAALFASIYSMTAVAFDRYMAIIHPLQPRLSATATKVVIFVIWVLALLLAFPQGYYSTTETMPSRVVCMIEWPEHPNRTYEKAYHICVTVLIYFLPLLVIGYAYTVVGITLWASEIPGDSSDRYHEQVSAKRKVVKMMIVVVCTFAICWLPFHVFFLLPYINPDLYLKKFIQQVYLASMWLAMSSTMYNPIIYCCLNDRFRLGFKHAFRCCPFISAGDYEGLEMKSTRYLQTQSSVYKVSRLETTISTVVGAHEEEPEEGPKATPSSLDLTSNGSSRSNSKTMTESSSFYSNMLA
# Chain of Substance-P receptor (Cavia porcellus, UniProt P30547) (P30547 whole entry): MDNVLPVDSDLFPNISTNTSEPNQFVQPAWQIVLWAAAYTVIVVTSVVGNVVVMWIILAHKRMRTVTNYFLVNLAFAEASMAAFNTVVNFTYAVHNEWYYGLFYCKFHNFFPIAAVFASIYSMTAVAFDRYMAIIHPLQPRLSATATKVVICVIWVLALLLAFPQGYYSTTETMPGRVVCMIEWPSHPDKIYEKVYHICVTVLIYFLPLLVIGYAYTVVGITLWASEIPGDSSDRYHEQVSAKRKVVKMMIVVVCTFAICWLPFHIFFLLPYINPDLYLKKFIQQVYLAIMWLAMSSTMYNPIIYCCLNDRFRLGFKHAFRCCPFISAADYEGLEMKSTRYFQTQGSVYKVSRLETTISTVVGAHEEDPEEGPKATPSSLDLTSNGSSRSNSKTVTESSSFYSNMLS
smiles,measurement,setting,value
COc1ccccc1CC(=N)N1C[C@@H]2C(=O)CCC(c3ccccc3)(c3ccccc3)[C@@H]2C1,Kb,Substance-P receptor [1],63.1 nM
same,Ki,Substance-P receptor [2],4.16 nM
